In patent publication US10183021B2, “sGC stimulators” (Ironwood Pharmaceuticals, Inc., priority 2013, dated 2019) one finds EC50 data, which are given here for 55 compounds.

Some results are limits rather than exact numbers.

Sequence of soluble guanylate cyclase (sGC) (Q02153 whole entry): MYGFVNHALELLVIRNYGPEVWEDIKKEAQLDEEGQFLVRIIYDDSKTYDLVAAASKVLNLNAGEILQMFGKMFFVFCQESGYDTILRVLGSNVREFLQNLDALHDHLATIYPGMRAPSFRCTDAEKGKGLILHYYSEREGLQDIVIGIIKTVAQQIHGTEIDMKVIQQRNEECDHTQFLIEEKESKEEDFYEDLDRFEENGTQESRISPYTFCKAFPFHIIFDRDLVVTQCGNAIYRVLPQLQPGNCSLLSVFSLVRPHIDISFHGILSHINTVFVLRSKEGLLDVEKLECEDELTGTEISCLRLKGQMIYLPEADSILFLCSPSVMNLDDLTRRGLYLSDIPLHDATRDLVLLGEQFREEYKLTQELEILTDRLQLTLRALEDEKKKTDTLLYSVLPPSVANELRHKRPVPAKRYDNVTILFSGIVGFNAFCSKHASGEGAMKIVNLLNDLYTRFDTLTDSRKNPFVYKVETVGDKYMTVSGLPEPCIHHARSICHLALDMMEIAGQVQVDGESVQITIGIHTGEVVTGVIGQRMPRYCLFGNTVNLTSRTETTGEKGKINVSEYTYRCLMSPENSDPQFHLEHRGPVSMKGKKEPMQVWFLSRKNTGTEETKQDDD
Sequence of soluble guanylate cyclase (sGC) (Q02108 whole entry): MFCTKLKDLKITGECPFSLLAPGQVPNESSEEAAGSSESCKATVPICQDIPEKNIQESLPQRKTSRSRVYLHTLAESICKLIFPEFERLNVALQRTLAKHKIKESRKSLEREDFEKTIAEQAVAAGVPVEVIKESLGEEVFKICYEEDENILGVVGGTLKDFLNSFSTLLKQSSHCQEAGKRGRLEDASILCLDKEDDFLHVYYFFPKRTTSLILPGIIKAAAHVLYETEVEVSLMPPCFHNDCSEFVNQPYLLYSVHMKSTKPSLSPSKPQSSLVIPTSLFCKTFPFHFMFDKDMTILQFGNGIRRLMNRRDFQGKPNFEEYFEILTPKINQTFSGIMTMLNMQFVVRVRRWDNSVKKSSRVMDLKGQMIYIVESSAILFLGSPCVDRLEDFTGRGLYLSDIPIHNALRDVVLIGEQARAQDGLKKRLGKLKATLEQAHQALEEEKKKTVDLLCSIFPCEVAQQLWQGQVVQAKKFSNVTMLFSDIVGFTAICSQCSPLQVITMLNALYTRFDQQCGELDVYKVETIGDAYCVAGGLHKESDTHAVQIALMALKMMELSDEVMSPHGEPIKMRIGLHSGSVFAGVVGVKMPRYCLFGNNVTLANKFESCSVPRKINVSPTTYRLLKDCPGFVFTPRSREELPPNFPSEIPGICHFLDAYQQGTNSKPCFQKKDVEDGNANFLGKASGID

This test deals with soluble guanylate cyclase (sGC) (Homo sapiens (Human), UniProt Q02108+Q02153). Briefly: sGC-HEK-cGMP assay, new protocol with DETA-NONOate, LC/MS detection (Example 2C). In kind it is cell-based. The following applies: read-out: Absolute EC50 (uM) - binned. The method, then:
Human embryonic kidney cells (HEK293), endogenously expressing soluble guanylate cyclase (sGC), were used to evaluate the activity of test compounds. Compounds stimulating the sGC enzyme should cause an increase in the intracellular concentration of cGMP. HEK 293 cells were seeded in Dulbecco's Modification of Eagle's Medium supplemented with fetal bovine serum (10% final) and penicillin (100 U/mL)/streptomycin (100 μg/mL) in a 50 μL volume at a density of 1.5×10^4 cells/well in a poly-D-lysine coated 384 well flat bottom plate. Cells were incubated overnight at 37° C. in a humidified chamber with 5% CO2. Medium was aspirated and cells were washed with 1× Hank's Buffered Saline Salt Solution (50 μL). Cells were then incubated for 15 minutes at 37° C. with 50 μL of a 0.5 mM 3-isobutyl-1-methylxanthine (IBMX) solution. Test article and Diethylenetriamine NONOate (DETA-NONOate) solutions (x μM concentration for test article solution and 10 μM concentration for DETA-NONOate solution; wherein x is one of the following concentrations);
were then added to the assay mixture and the resulting mixture incubated at 37° C. for 20 minutes. After the 20 minute incubation, the assay mixture was aspirated and 10% acetic acid containing 150 ng/mL+3-cGMP (internal standard for LCMS) (50 μL) was added to the cells. The plate was incubated at 4° C. for 30 minutes in the acetic acid solution to stop the reaction and lyse the cells. The plates were then centrifuged at 1,000 g for 3 minutes at 4° C. and the supernatant transferred to a clean reaction plate for LCMS analysis.
cGMP concentrations were determined from each sample using the LCMS conditions below (Table 5) and calculated standard curve.
Data were normalized to a high control using the following equation: 100*(Sample−Low Control)/(High Control−Low Control), where the low control is the average of 16 samples treated with 1% DMSO, and the high control is the average of 16 samples treated with 30 μM of 1-329 Data were fit using a 4-parameter fit (log(agonist) vs. response—variable slope) using GraphPad Prism Software v.5. n=2 for all compounds. […] Compounds failing to elicit a minimum response of 50% are reported as >30 μM.
With `O=C(O)[C@H]1[C@H]2CC[C@H](C2)[C@H]1Nc1nc(-c2cc(-c3ccon3)n(Cc3ccccc3F)n2)ncc1F` (racemic) [Compound I-379], the 50% effective concentration (EC50) (in general, the concentration at which the effect is half-maximal) was less than 0.1 µM.
As for `O=C(O)[C@H]1[C@@H](Nc2nc(-c3cc(-c4ccon4)n(Cc4ccccc4F)n3)ncc2F)[C@@H]2CC[C@H]1O2` (racemic) [Compound I-384], the figure is more than 1 µM; as for `O=C(Nc1ccnc(-c2cc(-c3ccon3)n(Cc3ccccc3F)n2)n1)C(F)(F)F` [Compound I-164], 0.101 to 1 µM; as for `CC1(C)CCC(C(=O)O)N(c2nc(-c3cc(-c4ccon4)n(Cc4ccccc4F)n3)ncc2F)C1` (stereo not shown) [Compound I-268], less than 0.1 µM.
As for `O=C(O)C12CC(Nc3nc(-c4cc(-c5ccon5)n(Cc5ccccc5F)n4)ncc3F)(C1)C2` [Compound I-269], the EC50 was more than 1 µM.
`O=C(O)C12CC1CCCN2c1nc(-c2cc(-c3ccon3)n(Cc3ccccc3F)n2)ncc1F` (stereo not shown) [Compound I-308]: the EC50 is 0.101 to 1 µM.
In the case of `CN(c1nc(-c2cc(-c3ccon3)n(Cc3ccccc3F)n2)ncc1F)[C@@H]1CC[C@H](C(=O)O)C1` [Compound I-309] it was less than 0.1 µM; in that of `C[C@@H]1[C@H](C(=O)O)CCCN1c1nc(-c2cc(-c3ccon3)n(Cc3ccccc3F)n2)ncc1F` [Compound I-310], less than 0.1 µM; in that of `C[C@H]1[C@@H](C(=O)O)CCCN1c1nc(-c2cc(-c3ccon3)n(Cc3ccccc3F)n2)ncc1F` [Compound I-311], 0.101 to 1 µM.
As for `O=C(O)C12CC1CN(c1nc(-c3cc(-c4ccon4)n(Cc4ccccc4F)n3)ncc1F)C2` (stereo not shown) [Compound I-312], the figure is 0.101 to 1 µM; as for `C[C@@H]1CN(c2nc(-c3cc(-c4ccon4)n(Cc4ccccc4F)n3)ncc2F)C[C@@H]1C(=O)O` [Compound I-314], less than 0.1 µM.
As for `Oc1c(F)cc(CNc2nc(-c3cc(-c4ccon4)n(Cc4ccccc4F)n3)ncc2F)cc1F` [Compound I-317], the figure is less than 0.1 µM; as for `OC[C@H]1CCN(c2nc(-c3cc(-c4ccon4)n(Cc4ccccc4F)n3)ncc2F)[C@@H](CO)C1` [Compound I-318], less than 0.1 µM.
As for `O=C(O)[C@H]1[C@@H](c2ccccc2)CCCN1c1nc(-c2cc(-c3ccon3)n(Cc3ccccc3F)n2)ncc1F` [Compound I-319], the EC50 was less than 0.1 µM.
As for `CN(C[C@H](O)CO)c1nc(-c2cc(-c3ccon3)n(Cc3ccccc3F)n2)ncc1F` [Compound I-320], the figure is less than 0.1 µM; as for `CN(C[C@@H](O)CO)c1nc(-c2cc(-c3ccon3)n(Cc3ccccc3F)n2)ncc1F` [Compound I-321], less than 0.1 µM.
In the case of `OC[C@@H](O)CN(CC1CC1)c1nc(-c2cc(-c3ccon3)n(Cc3ccccc3F)n2)ncc1F` [Compound I-322] it was less than 0.1 µM; in that of `CC(C)N(C[C@H](O)CO)c1nc(-c2cc(-c3ccon3)n(Cc3ccccc3F)n2)ncc1F` [Compound I-323], 0.101 to 1 µM; in that of `CC(C)(O)CNc1nc(-c2cc(-c3ccon3)n(Cc3ccccc3F)n2)ncc1F` [Compound I-325], less than 0.1 µM.
In the case of `O=C(Nc1ccnc(-c2cc(-c3ccon3)n(Cc3ccccc3F)n2)n1)[C@H](O)C(F)(F)F` [Compound I-326] it was 0.101 to 1 µM; in that of `CCOc1c(Nc2ccnc(-c3cc(-c4ccon4)n(Cc4ccccc4F)n3)n2)c(=O)c1=O` [Compound I-327], more than 1 µM.
Take `O=C(Nc1ccnc(-c2cc(-c3ccon3)n(Cc3ccccc3F)n2)n1)C1(C(F)(F)F)CC1` [Compound I-328]: the concentration for a half-maximal effect (EC50) is more than 1 µM.
As for `C[C@H]1CCCN(c2nc(-c3cc(-c4ccon4)n(Cc4ccccc4F)n3)ncc2F)[C@H]1C(=O)NS(=O)(=O)C1CC1` [Compound I-331], the figure is 0.101 to 1 µM; as for `C[C@H]1CCCN(c2nc(-c3cc(-c4ccon4)n(Cc4ccccc4F)n3)ncc2F)[C@@H]1C(=O)NS(=O)(=O)C1CC1` [Compound I-332], less than 0.1 µM; as for `C[C@H]1CCCN(c2ccnc(-c3cc(-c4ccon4)n(Cc4ccccc4F)n3)n2)[C@H]1C(=O)O` [Compound I-333], less than 0.1 µM.
Turning to `OCC(CO)(CO)Nc1nc(-c2cc(-c3ccon3)n(Cc3ccccc3F)n2)ncc1F` [Compound I-334], the EC50 fell in the range of 0.101 to 1 µM.
With `NC(=O)[C@H](CO)Nc1nc(-c2cc(-c3ccon3)n(Cc3ccccc3F)n2)ncc1F` [Compound I-335], the EC50 is 0.101 to 1 µM.
As for `O=C(NC(CO)CO)[C@@H](CO)Nc1nc(-c2cc(-c3ccon3)n(Cc3ccccc3F)n2)ncc1F` [Compound I-336], the figure is more than 1 µM.
As to `O=C(O)c1cccc2c1CN(c1nc(-c3cc(-c4ccon4)n(Cc4ccccc4F)n3)ncc1F)CC2` [Compound I-339], the EC50 was less than 0.1 µM.
As for `CN(CC1(C(=O)O)CC1)c1nc(-c2cc(-c3nccs3)n(Cc3ccccc3F)n2)ncc1F` [Compound I-343], the figure is less than 0.1 µM; as for `CC(C)[C@H](CN(C)c1nc(-c2cc(-c3ccon3)n(Cc3ccccc3F)n2)ncc1F)NS(=O)(=O)C1CC1` [Compound I-344], less than 0.1 µM.
As for `CN(CC1(C(=O)O)CC1)c1nc(-c2cc(-c3cscn3)n(Cc3ccccc3F)n2)ncc1F` [Compound I-345], the figure is less than 0.1 µM; as for `Fc1ccccc1Cn1nc(-c2ncc(F)c(N3CCc4[nH]nc(C(F)(F)F)c4C3)n2)cc1-c1ccon1` [Compound I-346], more than 1 µM; as for `O[C@@H]1[C@H](O)CN(c2nc(-c3cc(-c4ccon4)n(Cc4ccccc4F)n3)ncc2F)C[C@@H]1O` [Compound I-347], less than 0.1 µM.
`NCC(O)CNc1nc(-c2cc(-c3ccon3)n(Cc3ccccc3F)n2)ncc1F` (stereo not shown) [Compound I-348]: the EC50 was more than 1 µM.
In the case of `CS(=O)(=O)NCC(O)CNc1nc(-c2cc(-c3ccon3)n(Cc3ccccc3F)n2)ncc1F` (stereo not shown) [Compound I-349] it was less than 0.1 µM; in that of `O[C@@H]1CN(c2nc(-c3cc(-c4ccon4)n(Cc4ccccc4F)n3)ncc2F)CC[C@@H]1O` [Compound I-350], less than 0.1 µM; in that of `CC(C)(C)OC(=O)N1CC(O)(CNc2nc(-c3cc(-c4ccon4)n(Cc4ccccc4F)n3)ncc2F)C1` [Compound I-351], less than 0.1 µM.
As for `OCC(O)(CCl)CNc1nc(-c2cc(-c3ccon3)n(Cc3ccccc3F)n2)ncc1F` (stereo not shown) [Compound I-352], the figure is less than 0.1 µM; as for `OC1(CNc2nc(-c3cc(-c4ccon4)n(Cc4ccccc4F)n3)ncc2F)CNC1` [Compound I-353], more than 1 µM.
In the case of `O=S(=O)(NC1(CNc2nc(-c3cc(-c4ccon4)n(Cc4ccccc4F)n3)ncc2F)CC1)C(F)(F)F` [Compound I-354], the EC50 was less than 0.1 µM.
In the case of `OCC(O)(CNc1nc(-c2cc(-c3ccon3)n(Cc3ccccc3F)n2)ncc1F)C(F)(F)F` (stereo not shown) [Compound I-355] it was less than 0.1 µM.
Turning to `O=C1NCC[C@@H]1Nc1nc(-c2cc(-c3ccon3)n(Cc3ccccc3F)n2)ncc1F` [Compound I-356], the EC50 was 0.101 to 1 µM.
As for `OC(C1CN(c2nc(-c3cc(-c4ccon4)n(Cc4ccccc4F)n3)ncc2F)C1)(C(F)(F)F)C(F)(F)F` [Compound I-357], the figure is more than 1 µM; as for `O=C(O)C1(CNc2nc(-c3cc(-c4ccon4)n(Cc4ccccc4F)n3)ncc2F)CC1` [Compound I-358], less than 0.1 µM; as for `O=C(O)C1(c2ccc(Nc3nc(-c4cc(-c5ccon5)n(Cc5ccccc5F)n4)ncc3F)cc2)CC1` [Compound I-360], less than 0.1 µM.
In the case of `CC(=O)c1cc(-c2ncc(F)c(NCC(O)(C(F)(F)F)C(F)(F)F)n2)nn1Cc1ccccc1F` [Compound I-362] it was 0.101 to 1 µM; in that of `O=S(=O)(O)C1CCN(c2nc(-c3cc(-c4ccon4)n(Cc4ccccc4F)n3)ncc2F)CC1` [Compound I-363], more than 1 µM.
As for `Oc1n[nH]c2c1CCN(c1nc(-c3cc(-c4ccon4)n(Cc4ccccc4F)n3)ncc1F)C2` [Compound I-370], the figure is less than 0.1 µM.
As to `CN(Cc1nc(C(=O)O)cs1)c1nc(-c2cc(-c3ccon3)n(Cc3ccccc3F)n2)ncc1F` [Compound I-373], the EC50 fell in the range of 0.101 to 1 µM.
In the case of `O=C(O)c1cccc(CCNc2nc(-c3cc(-c4ccon4)n(Cc4ccccc4F)n3)ncc2F)c1` [Compound I-377] it was less than 0.1 µM.
With `CCOC(=O)C1=C(O)CN(c2nc(-c3cc(-c4ccon4)n(Cc4ccccc4F)n3)ncc2F)CC1` [Compound I-378], the EC50 is less than 0.1 µM.
As for `O=C(O)[C@H]1CCC[C@@H](Nc2nc(-c3cc(-c4ccon4)n(Cc4ccccc4F)n3)ncc2F)C1` [Compound I-380], the EC50 was less than 0.1 µM.
As for `O=S(=O)(CCNc1nc(-c2cc(-c3ccon3)n(Cc3ccccc3F)n2)ncc1F)NCC(F)(F)F` [Compound I-381], the figure is less than 0.1 µM; as for `CNC(=O)C(C)(O)CN(C)c1nc(-c2cc(-c3ccon3)n(Cc3ccccc3F)n2)ncc1F` (stereo not shown) [Compound I-382], less than 0.1 µM.
